Test results as given in patent US9440950B2, “Arginine methyltransferase inhibitors and uses thereof” (Epizyme, Inc., priority 2013, dated 2016).

Molecular target: T1, human PRMT1 (Homo sapiens, UniProt Q99873)
T1 construct: GST-tagged PRMT1; made in house; host or cells: High Five insect cells (baculovirus, pFastBacI)
Test: PRMT1 Biochemical Assay
Conditions: peptide substrate, 3H-SAM Flashplate assay
Description: S-adenosylmethionine (SAM), S-adenosylhomocysteine (SAH), bicine, Tween20, dimethylsulfoxide (DMSO), bovine skin gelatin (BSG), and Tris(2-carboxyethyl)phosphine hydrochloride solution (TCEP) were purchased from Sigma-Aldrich at the highest level of purity possible. ^3H-SAM was purchase from American Radiolabeled Chemicals with a specific activity of 80 Ci/mmol. 384-well streptavidin Flashplates were purchased from PerkinElmer.
Peptide representative of human histone H4 residues 36-50 was synthesized with an N-terminal linker-affinity tag motif and a C-terminal amide cap by 21st Century Biochemicals. The peptide was purified by high-performance liquid chromatography (HPLC) to greater than 95% purity and confirmed by liquid chromatography mass spectrometry (LC-MS). The sequence was Biot-Ahx-[…]-amide (SEQ ID NO.: 1).
Full-length human PRMT1 isoform 1 (NM_001536.5) transcript clone was amplified from an HEK 293 cDNA library, incorporating flanking 5′ sequence encoding a FLAG tag ([…]) (SEQ ID NO.:2) fused directly to Met 1 of PRMT1. The amplified gene was subcloned into pFastBacI (Life Technologies) modified to encode an N-terminal GST tag and a TEV cleavage sequence ([…] […] […] […])(SEQ ID NO.:3) fused to Asp of the Flag tag of PRMT1.
Recombinant baculovirus were generated according to Bac-to-Bac kit instructions (Life Technologies). Protein over-expression was accomplished by infecting exponentially growing High Five insect cell culture at 1.5×10^6 cell/ml with 1:100 ratio of virus. Infections were carried out at 27° C. for 48 hours, harvested by centrifugation, and stored at −80° C. for purification.
GST-tagged PRMT1 was eluted with 50 mM Tris, 2 mM glutathione, pH 7.8, dialysed in buffer A and concentrated to 1 mg/mL. The purity of recovered protein was 73%. Reference: Wasilko, D. J. and S. E. Lee: “TIPS: titerless infected-cells preservation and scale-up” Bioprocess J., 5 (2006), pp. 29-32.
General Procedure for PRMT1 Enzyme Assays on Peptide Substrates.
The assays were all performed in a buffer consisting of 20 mM Bicine (pH=7.6), 1 mM TCEP, 0.005% BSG, and 0.002% Tween 20, prepared on the day of use. Compounds in 100% DMSO (1 ul) were spotted into a polypropylene 384-well V-bottom plates (Greiner) using a Platemate Plus outfitted with a 384-channel head (Thermo Scientific). DMSO (1 ul) was added to Columns 11, 12, 23, 24, rows A-H for the maximum signal control and 1 ul of SAH, a known product and inhibitor of PRMT1, was added to columns 11, 12, 23, 24, rows I-P for the minimum signal control. A cocktail (40 ul) containing the PRMT1 enzyme was added by Multidrop Combi (Thermo-Fisher). The compounds were allowed to incubate with PRMT1 for 30 min at room temperature, then a cocktail (10 ul) containing SAM and peptide was added to initiate the reaction (final volume=51 ul). The final concentrations of the components were as follows: PRMT1 was 0.5 nM, ^3H-SAM was 200 nM, non-radiolabeled SAM was 1.5 uM, peptide was 20 nM, SAH in the minimum signal control wells was 1 mM, and the DMSO concentration was 2%. The assays were stopped by the addition of non-radiolabeled SAM (10 ul) to a final concentration of 300 uM, which dilutes the ^3H-SAM to a level where its incorporation into the peptide substrate is no longer detectable. 50 ul of the reaction in the 384-well polypropylene plate was then transferred to a 384-well Flashplate and the biotinylated peptides were allowed to bind to the streptavidin surface for at least 1 hour before being washed once with 0.1% Tween20 in a Biotek ELx405 plate washer. The plates were then read in a PerkinElmer TopCount plate reader to measure the quantity of ^3H-labeled peptide bound to the Flashplate surface, measured as disintegrations per minute (dpm) or alternatively, referred to as counts per minute (cpm).
Where dpm=disintegrations per minute, cmpd=signal in assay well, and min and max are the respective minimum and maximum signal controls. […]

T1 sequence (Q99873 with tags, fused parts or gaps): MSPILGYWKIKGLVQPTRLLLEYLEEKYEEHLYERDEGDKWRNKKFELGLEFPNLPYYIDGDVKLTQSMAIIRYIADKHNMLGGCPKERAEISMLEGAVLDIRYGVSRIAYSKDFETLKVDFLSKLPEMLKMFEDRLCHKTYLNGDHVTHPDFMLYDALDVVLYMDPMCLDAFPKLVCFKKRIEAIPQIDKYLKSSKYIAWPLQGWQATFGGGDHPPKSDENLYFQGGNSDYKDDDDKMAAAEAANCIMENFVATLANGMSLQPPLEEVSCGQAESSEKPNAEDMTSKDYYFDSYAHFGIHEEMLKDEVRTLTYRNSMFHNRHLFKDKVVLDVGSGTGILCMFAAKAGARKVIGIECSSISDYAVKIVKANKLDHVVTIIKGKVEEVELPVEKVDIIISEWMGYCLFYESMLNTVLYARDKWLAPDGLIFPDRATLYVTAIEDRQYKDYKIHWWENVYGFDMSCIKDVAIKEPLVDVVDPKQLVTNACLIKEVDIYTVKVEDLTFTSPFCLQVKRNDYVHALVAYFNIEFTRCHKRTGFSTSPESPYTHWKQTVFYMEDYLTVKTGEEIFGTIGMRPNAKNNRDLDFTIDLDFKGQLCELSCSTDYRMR

| SMILES | IC50 [nM] |
| --- | --- |
| CN(CCN)Cc1c[nH]nc1-c1cncc(S(C)(=O)=O)c1 [Compound 4] | 1010 to 3000 |
| COc1ccc(-c2n[nH]cc2CN(C)CCN)cn1 [Compound 5] | 101 to 1000 |
| Cc1cncc(-c2n[nH]cc2CN(C)CCN)c1 [Compound 6] | ≥ 10000 |
| CN(CCN)Cc1c[nH]nc1-c1cccnc1 [Compound 8] | 101 to 1000 |
| COc1cc(-c2n[nH]cc2CN(C)CCN)ccn1 [Compound 11] | 101 to 1000 |
| COc1cc(-c2n[nH]cc2CN(C)CCN)c(Cl)cn1 [Compound 12] | 1010 to 3000 |
| COc1ncc(Cl)cc1-c1n[nH]cc1CN(C)CCN [Compound 14] | 1010 to 3000 |
| COc1ncccc1-c1n[nH]cc1CN(C)CCN [Compound 15] | 101 to 1000 |
| COc1ccncc1-c1n[nH]cc1CN(C)CCN [Compound 16] | 101 to 1000 |
| Cc1ccncc1-c1n[nH]cc1CN(C)CCN [Compound 17] | 101 to 1000 |
| CN(CCN)Cc1c[nH]nc1-c1cncc(C#N)c1 [Compound 18] | 101 to 1000 |
| CCN(CC)c1ccc(-c2n[nH]cc2CN(C)CCN)cn1 [Compound 24] | 101 to 1000 |
| CN(CCN)Cc1c[nH]nc1-c1ccccn1 [Compound 27] | 3010 to 10000 |
| CN(CCN)Cc1c[nH]nc1-c1cnccc1C(F)(F)F [Compound 29] | 1010 to 3000 |
| CNCCN(C)Cc1c[nH]nc1-c1ccc(N(C)C(C)C)nc1 [Compound 33, N^1-((3-(6-(isopropyl(methyl)amino)pyridin-3-yl)-1H-pyrazol-4-yl)methyl)-N^1,N^2-dimethylethane-1,2-diamine] | ≤ 100 |
| CCN(CCC(C)C)c1ccc(-c2n[nH]cc2CN(C)CCNC)cn1 [Compound 34, N^1-((3-(6-(ethyl(isopentyl)amino)pyridin-3-yl)-1H-pyrazol-4-yl)methyl)-N^1,N^2-dimethylethane-1,2-diamine] | ≤ 100 |
| CNCCN(C)Cc1c[nH]nc1-c1ccc(OCC(C)C)nc1 [Compound 35, N^1-((3-(6-iso-butoxypyridin-3-yl)-1H-pyrazol-4-yl)methyl)-N^1,N^2-dimethylethane-1,2-diamine] | ≤ 100 |
| CCN(CC(C)C)c1ccc(-c2n[nH]cc2CN(C)CCNC)cn1 [Compound 36] | ≤ 100 |

The next lines start with the values.

| IC50 [nM] | SMILES |
| --- | --- |
| ≤ 100 | CN(CCN)Cc1c[nH]nc1-c1cncc(F)c1 [Compound 7] |
| ≤ 100 | CN(CCN)Cc1c[nH]nc1-c1ccncc1 [Compound 9] |
| ≤ 100 | Cc1cc(-c2n[nH]cc2CN(C)CCN)cnc1Cl [Compound 10] |
| ≤ 100 | CN(CCN)Cc1c[nH]nc1-c1ccc(C(F)(F)F)nc1 [Compound 13, N^1-methyl-N^1-((3-(6-(trifluoromethyl)pyridin-3-yl)-1H-pyrazol-4-yl)methyl)ethane-1,2-diamine] |
| ≤ 100 | CN(CCN)Cc1c[nH]nc1-c1cncc(Cl)c1 [Compound 19] |
| ≤ 100 | CN(CCN)Cc1c[nH]nc1-c1ccc(N2CCOCC2)nc1 [Compound 20] |
| ≤ 100 | CC(C)CN(C)c1ccc(-c2n[nH]cc2CN(C)CCN)cn1 [Compound 21] |
| ≤ 100 | CC(C)Oc1ccc(-c2n[nH]cc2CN(C)CCN)cn1 [Compound 22] |
| ≤ 100 | CN(CCN)Cc1c[nH]nc1-c1ccc(N(C)Cc2ccccc2)nc1 [Compound 23] |
| ≤ 100 | CN(CCN)Cc1c[nH]nc1-c1ccc(NCc2ccccc2)nc1 [Compound 25] |
| ≤ 100 | CC(C)CNc1ccc(-c2n[nH]cc2CN(C)CCN)cn1 [Compound 26] |
| ≤ 100 | CN(CCN)Cc1c[nH]nc1-c1ccc(C#N)nc1 [Compound 28, 5-(4-(((2-aminoethyl)(methyl)amino)methyl)-1H-pyrazol-3-yl)picolinonitrile] |
| ≤ 100 | CNCCN(C)Cc1c[nH]nc1-c1ccc(N(C)CCC(C)C)nc1 [Compound 30] |
| ≤ 100 | CNCCN(C)Cc1c[nH]nc1-c1ccc(N(CC(C)C)CC(C)C)nc1 [Compound 31] |
| ≤ 100 | CNCCN(C)Cc1c[nH]nc1-c1ccc(N(C)CC(C)C)nc1 [Compound 32, N^1-((3-(6-(isobutyl(methyl)amino)pyridin-3-yl)-1H-pyrazol-4-yl)methyl)-N^1,N^2-dimethylethane-1,2-diamine] |
